Patent US20260183392A1, “METHODS AND KITS FOR DNA EDITING AND TREATING, AMELIORATING AND/OR PREVENTING CANCER” (FC IP Holdings, LLC, priority 2022, published 2026)

Legend:
iPSC = assay: Cell viability / cell health of engineered iPSC; type: cell-based
Source text: FIGS. 3A-3H: induced pluripotent stem cells (iPSC) engineering according to some embodiments. FIG. 3A: GFP knock-in efficiency (on Day 7) at RAB11A locus in iPSC using cssDNA or dsDNA as donor templates. FIG. 3B: Cell viability of cssDNA- and dsDNA-engineered iPSC as measured on Day 3. FIG. 3C: Does-dependent GFP reporter knock-in using GFP reporter cssDNA targeting RAB11A or B2M locus. FIG. 3D: GFP fluorescence and phase contrast imaging of representative engineered iPSC colony. FIG. 3E: Schematic diagram of cssDNA donor templates for multiplexed reporter gene knock-in at RAB11A and B2M loci. FIG. 3F: Dual knock-in of mCherry and GFP report genes at the same RAB11A locus. FIG. 3G: Dual knock-in of mCherry and GFP report genes at RAB11A locus and B2M locus, respectively. […] GFP knock-in efficiency was assessed on Day 7 post electroporation by flow cytometry. […]
The present study next evaluated small-molecule inhibitors that have been reported to enhance knock-in efficiency, including the DNA-dependent protein kinase (DNA-PK) inhibitor M-3814 and “Alt-R HDR enhancer 2” (HDRe.v2), which is described as a nonhomologous end joining (NHEJ) inhibitor (Kath et al., Mol Ther Methods Clin Dev. 2022 April 12:25:311-330; Shy et al., Nat Biotechnol. 2023 April; 41 (4): 521-531; and Tatiossian et al., Mol Ther. 2021 Mar. 3; 29 (3): 1057-1069). […]

[1] = system: RAB11A locus and TRAC locus in human primary T cells; assay: GFP reporter knock-in at RAB11A or TRAC locus in human primary T cells; type: cell-based; details: 1 μM for 24 hours vs DMSO; cssDNA donors; Day 7
Procedure: FIGS. 5A-5D: Innate immune response in primary T cells, in accordance with some embodiments. FIG. 5A: Schematic diagram of the GFP reporter cssDNA targeting RAB11A locus and TRAC locus (Upper). GFP reporter knock-in efficiency with cssDNA donor templates in human primary T cells. Immediately after electroporation, cells were treated with either DMSO or 1 μM M-3814 for 24 hours. The knock-in efficiency was examined on Day 7 post electroporation. FIG. 5B. Secreted IFN-γ and TNF-α cytokines levels in cultured primary T medium after electroporation with buffer, dsDNA, cssDNA or mRNA molecules. Conditioned media were collected for cytokine analysis using the Ella immunoassay platform with selected panels. FIGS. 5C-5D: Gene set enrichment analysis (GSEA) enrichment analysis of interferon gamma response genes on the differential expression genes (DEG) of from the dsDNA or cssDNA treated primary T cells. […]
Genetically engineered T cell immunotherapies have provided remarkable clinical success to treat B cell acute lymphoblastic leukemia and have the potential to provide therapeutic benefit for numerous other cancers, infectious diseases, and autoimmunity. […] Primary T cells were co-electroplated with respective RNPs, and knock-in efficiency was determined on Day 7 post electroporation by GFP^+ cell percentage using flow cytometry. […]

[2] = system: TRAC locus in primary T cells; assay: Anti-CD19xCD22 CAR knock-in at TRAC locus in primary T cells (Protein L, flow cytometry); type: cell-based, human; details: 2 μg of cssDNA plus 1 μM M-3814; Day 7
Source text: FIGS. 7A-7I: CAR-T cell engineering with cssDNA, in accordance with some embodiments. FIG. 7A: Schematic diagram of nonviral CAR-T cell engineering process. Pan T cells are isolated from peripheral blood and activated on day 0 with anti-CD3/anti-CD28 TransAct. Cells are electroporated using the Lonza nucleofector on day 2 with Cas9 RNPs+cssDNA HDR donor templates and then expanded for a total of 7-10 days. FIG. 7B: Representative day 7 flow cytometry graphs showing CAR knock-in for Mock (un-engineered) and cssDNA-engineered T cells with DMSO or 1 μM M-3814 treatments. FIG. 7C: Representative day 7 flow plots and quantifications of CAR knock-in for mock (un-engineered), cssDNA- or AAV6-engineered T cells. Cells were treated with 1 μM M-3814 for 1 day immediately after electroporation. FIG. 7D: Expansion ability of engineered CAR-T cells. FIG. 7E: In vitro killing of NALM6 acute lymphoblastic leukemia cell line with cssDNA-, AAV6-engineered CAR-T cells in comparison to unmodified T cells from same blood donors after 24 hours of co-culture. The in vitro killing measured by live cell imaging using IncuCyte® live cell imaging system. […] FIG. 7G: the data of FIG. 7F, expressed as a bar chart. […] I. FIG. 7I, Tumor burden shown as bioluminescent signal quantified per animal every week over a 21-day period. n=5 mice per group. […]

human B2M locus = assay: Screen of crRNA for Cpf1 at human B2M locus (cleavage efficiency)

Molecule	live cell counts (iPSC; at the chosen concentrations)	reduction in cell viability (iPSC; higher doses, day 4 post-electroporation)	increase of knock-in efficiency [1]	knock-in efficiency (percentage of CAR+ cells) [2] [%]	cleavage efficiency (human B2M locus)
COc1ccc([C@@H](O)c2cc(-c3ncnc4cc(N5CCOCC5)ccc34)c(F)cc2Cl)nn1 [M-3814]	generally unaffected	roughly 38%	60-150%	56.3	–
Cpf1-crRNA: crRNA for Cpf1 at human B2M locus identified by screening (guide AGUGGGGGUGAAUUCAGUGU; chemistry not fully specified)	–	–	–	–	over 95%
